# Assay results reported in patent US20250186466A1, “ZLT-007 AND METHODS OF TREATING DIABETIC NEUROPATHY” (IIere Therapeutics LLC, priority 2022, published 2025).
# Experiments:
# [1] = test system: subjects with pain associated with diabetic neuropathy; experiment: 12-week clinical study, pain Visual Analog Scale (VAS); assay type: in vivo, human; conditions: Day 30, Day 60, Day 90
# Description: (§1) To determine the effect of ZLT-L-007 in subjects with pain associated with diabetic neuropathy, an observational 12-week clinical study to evaluate the efficacy, safety and tolerability of ZLT-L-007 versus Pregabalin (300 Mg/Day) was conducted.
# [2] = test system: subjects with pain associated with diabetic neuropathy; experiment: 12-week clinical study, Daily Pain Numeric Rating Scale (NRS); assay type: in vivo, human
# Description: as §1
# Primary endpoints of the study included: 1. Recording Daily Pain Numeric Rating Scale (NRS) at Baseline, Day 30, Day 60, and Day 90.
# Three groups were used to evaluate the effect of ZLT-L-007 in subjects with pain associated with diabetic neuropathy: Group 1 (Pregabalin), Group 2 (ZLT-L-007 pharmaceutical composition+terpene composition), and Group 3 (Pregabalin and ZLT-L-007 pharmaceutical composition+terpene composition). More detailed information regarding each group's treatment is provided below.
# Group 3 subjects were already taking pregabalin/Lyrica® at the prescribed dose recommended by their doctor. Subjects then received one capsule by mouth twice daily of the ZLT-L-007 pharmaceutical composition. Participants were also given one capsule by mouth twice daily of a terpene composition that comprised 0.25 mg of myrcene and 0.25 mg of linalool.
# Group 3 was administered one capsule by mouth twice daily of the ZLT-L-007 pharmaceutical composition.. Participants were also given one capsule by mouth twice daily of a terpene composition that comprised 0.25 mg of myrcene and 0.25 mg of linalool.
smiles,measurement,setting,value
CC(C)C[C@H](CN)CC(=O)O [Pregabalin],"VAS pain severity, median percent change from baseline, range",[1],−33.33% to −35.00%
same,"NRS Severity, median percent change from baseline","[2]; 30-day follow-up, ZLT-L-007 one capsule by mouth twice daily plus terpene capsule",−33.33%
same,"NRS Severity, median percent change from baseline",[2]; 60-day follow-up,−20.00%
same,"NRS Severity, median percent change from baseline",[2]; 90-day follow-up,−35.00%
same,"NRS Severity, median percent change from baseline, range",[2]; all follow-up periods,−20.00% to −35.00%
